Values after ≈ are worked out from the molar mass of the structure shown. Read-outs that look alike come from different tables or passages of the source.
Legend:
Bacteroides fragilis = test: microbe, parasite or virus in culture; type: cell-based
[1] = tested on: Other Bacteroides spp. and Parabacteroides; type: cell-based, Bacteroides spp. and Parabacteroides distasonis
Prevotella spp. = type: cell-based
Fusobacterium nucleatum = test: microbe, parasite or virus in culture; type: cell-based
Clostridium difficile = test: microbe, parasite or virus in culture; type: cell-based
Clostridium perfringens = type: cell-based
[2] = tested on: Porphyromonas gingivalis (ATCC 33277); test: microbe, parasite or virus in culture; type: cell-based
Porphyromonas sp. (CI) = test: microbe, parasite or virus in culture; type: cell-based
[3] = tested on: Clostridium sordellii (CI); type: cell-based
[4] = tested on: Actinomyces odontolyticus (CI); type: cell-based
[5] = tested on: Parvimonas micra (ATCC 3870); test: microbe, parasite or virus in culture; type: cell-based
Finegoldia magna (CI) = test: microbe, parasite or virus in culture; type: cell-based
[6] = determined in PBS buffer ref 47; cited from earlier work
[7] = cited from earlier work
[8] = tested on: Bacteroides thetaiotaomicron (ATCC 29148); test: microbe, parasite or virus in culture; type: cell-based; settings: ATCC29148
[9] = tested on: Bacteroides ovatus (ATCC 84834); test: microbe, parasite or virus in culture; type: cell-based; settings: ATCC84834
[10] = tested on: Prevotella intermedia/nigres-cens (ATCC 25611); test: microbe, parasite or virus in culture; type: cell-based, Prevotella intermedia/nigrescens; settings: ATCC25611
[11] = tested on: Porphyromonas asaccharolytica (CI); test: microbe, parasite or virus in culture; type: cell-based
[12] = tested on: Clostridium sporogenes (ATCC 3584); test: microbe, parasite or virus in culture; type: cell-based; settings: ATCC3584
[13] = tested on: Eggerthella lenta (ATCC 43055); test: microbe, parasite or virus in culture; type: cell-based; settings: ATCC43055
[14] = tested on: Clostridium butyricum (CI); test: microbe, parasite or virus in culture; type: cell-based
[15] = tested on: Peptostreptococcus anaerobius (CI); test: microbe, parasite or virus in culture; type: cell-based
Cutibacterium acnes = test: microbe, parasite or virus in culture; type: cell-based
Fusobacterium mortiferum = test: microbe, parasite or virus in culture; type: cell-based
C. difficile = C. difficile infection, review ref 25; cited from earlier work
[16] = Bacteroides fragilis, ATCC25285
[17] = Fusobacterium nucleatum, ATCC25586
[18] = Clostridioides difficile, ATCC43255
[19] = Porphyromonas gingivalis, ATCC33277

| Compound | Selectivity index (>100 μg mL^−1/MIC90) (Bacteroides fragilis) | Selectivity index (>100 μg mL^−1/MIC90) [1] | Selectivity index (>100 μg mL^−1/MIC90) (Prevotella spp.) | Selectivity index (>100 μg mL^−1/MIC90) (Fusobacterium nucleatum) | Selectivity index (>100 μg mL^−1/MIC90) (Clostridium perfringens) | MIC (Bacteroides fragilis; [16]) [µg/mL] | MIC [8] [µg/mL] | MIC [9] [µg/mL] | MIC [10] [µg/mL] | MIC (Fusobacterium nucleatum; [17]) [µg/mL] | MIC (Clostridium difficile; [18]) [µg/mL] | MIC [11] [µg/mL] | MIC (Porphyromonas sp. (CI); Porphyromonas) [µg/mL] | MIC [12] [µg/mL] | MIC [13] [µg/mL] | MIC [14] [µg/mL] | MIC ([5]; Parvimonas micra, ATCC3870) [µg/mL] | MIC (Finegoldia magna (CI); Finegoldia magna) [µg/mL] | MIC [15] [µg/mL] | further results |
| --- | --- | --- | --- | --- | --- | --- | --- | --- | --- | --- | --- | --- | --- | --- | --- | --- | --- | --- | --- | --- |
| 5-phenyl-2,3-dihydropyrimidoquinoxaline N-oxide [1a] | >100 | >100 | >100 | >100 | >6 |  |  |  |  |  |  |  |  |  |  |  |  |  |  | MIC (Bacteroides fragilis): 1 µg/mL; MIC (Fusobacterium nucleatum): 0.125 µg/mL; MIC (Clostridium difficile): 4 µg/mL; Selectivity index (>100 μg mL^−1/MIC90) (Clostridium difficile): >25; MIC [2]: ≤0.06 µg/mL; MIC (Porphyromonas sp. (CI)): 0.125 µg/mL; MIC [3]: 16 µg/mL; MIC [4]: 32 µg/mL; MIC [5]: 0.125 µg/mL; MIC (Finegoldia magna (CI)): 2 µg/mL; Cell viability (RAW 264.7 cells): 98%; logP: experimental log of the octanol/water partition coefficient [6]: −0.149 |
| O=[N+]([O-])c1ccc(C2=NCCCN2c2ccccc2)cc1 [1-phenyl-2-4-nitrophenyl-1,4,5,6-tetrahydropyrimidine] |  |  |  |  |  |  |  |  |  |  |  |  |  |  |  |  |  |  |  | pKa [7]: 10.51 |
| [O-][N+]1=C(c2ccc(Cl)cc2)C2=NCCN2c2ccccc21 [1j, 4-(4-Chlorophenyl)-1,2-dihydroimidazo[1,2-a]quinoxaline 5-oxide] | >800 | >800 | >1667 | >800 | >100 | 0.125 (≈ 0.42 µM) | 0.125 (≈ 0.42 µM) | 0.125 (≈ 0.42 µM) | ≤ 0.06 | ≤ 0.06 | 0.25 (≈ 0.84 µM) | ≤ 0.06 | ≤ 0.06 | 0.25 (≈ 0.84 µM) | ≤ 0.06 | ≤ 0.06 | ≤ 0.06 | 0.25 (≈ 0.84 µM) | 0.25 (≈ 0.84 µM) | MIC [2, 19]: ≤ 0.06 µg/mL; logP: experimental log of the octanol/water partition coefficient [6]: 1.292 |
| O=[N+]([O-])c1ccc(C2=[N+]([O-])c3ccccc3N3CCN=C23)cc1 [1k, 4-(4-Nitrophenyl)-1,2-dihydroimidazo[1,2-a]quinoxaline 5-oxide] | >1667 | >1667 | >1667 | >1667 | >800 | ≤ 0.06 | ≤ 0.06 | ≤ 0.06 | ≤ 0.06 | ≤ 0.06 | ≤ 0.06 | ≤ 0.06 | ≤ 0.06 | ≤ 0.06 | ≤ 0.06 | ≤ 0.06 | ≤ 0.06 | 1 (≈ 3.24 µM) | ≤ 0.06 | Selectivity index (>100 μg mL^−1/MIC90) (Clostridium difficile): >1667; MIC (Cutibacterium acnes): 32 µg/mL (≈ 104 µM); Selectivity index (IS) (RAW 264.7 cells): > 800 |
| Cc1ncc([N+](=O)[O-])n1CCO [Mtz, metronidazole, reference compound] |  |  |  |  |  | 0.25 (≈ 1.46 µM) | 1 (≈ 5.84 µM) | 1 (≈ 5.84 µM) | 1 (≈ 5.84 µM) | 0.125 (≈ 0.73 µM) | 0.25 (≈ 1.46 µM) | 0.25 (≈ 1.46 µM) | 0.125 (≈ 0.73 µM) | 0.25 (≈ 1.46 µM) | 0.25 (≈ 1.46 µM) | ≤ 0.06 | 0.125 (≈ 0.73 µM) | 0.125 (≈ 0.73 µM) | 0.125 (≈ 0.73 µM) | MIC [2, 19]: ≤ 0.06 µg/mL; MIC (Fusobacterium mortiferum): 0.25 µg/mL (≈ 1.46 µM); MIC (Cutibacterium acnes): > 64 µg/mL; recurrence after treatment (C. difficile): 27.1%; treatment failure (C. difficile): 22.4% |
| O=[N+]([O-])c1ccc(C2=NCCN2c2ccccc2)cc1 [its imidazoline homologue] |  |  |  |  |  |  |  |  |  |  |  |  |  |  |  |  |  |  |  | pKa [7]: 7.65 |
| CN[C@H](CC(C)C)C(=O)N[C@H]1C(=O)N[C@@H](CC(N)=O)C(=O)N[C@H]2C(=O)N[C@H]3C(=O)N[C@H](C(=O)N[C@H](C(=O)O)c4cc(O)cc(O)c4-c4cc3ccc4O)[C@H](O)c3ccc(c(Cl)c3)Oc3cc2cc(c3O[C@@H]2O[C@H](CO)[C@@H](O)[C@H](O)[C@H]2O[C@H]2C[C@](C)(N)[C@H](O)[C@H](C)O2)Oc2ccc(cc2Cl)[C@H]1O [vancomycin] |  |  |  |  |  |  |  |  |  |  |  |  |  |  |  |  |  |  |  | recurrence after treatment (C. difficile): 24.0%; treatment failure (C. difficile): 14.2% |
